Measured values from the supplement of paper PMC6965134.
± gives the standard deviation of the averaged measurements.

Assay: TIMS collisional cross section (CCS, N2) of the lipid ion; higher = larger ion cross section
Conditions: ionization mode: positive, one isomer drawn

| Structure (SMILES) | TIMS collisional cross section (sample type: HeLa) | TIMS collisional cross section (sample type: plasma) | TIMS collisional cross section (sample type: Liver) |
| --- | --- | --- | --- |
| CCCCCCCCCCCCCCCC(=O)OC[C@H](COP(=O)([O-])OCC[N+](C)(C)C)OC(=O)CCCCCCCC=O [Oxidized PC 16:0_9:0@] (ion (formula + adduct): [C33H64NO9P+H] 1+) | 257.85 ± 1.6 Å² | 257 ± 0.14 Å² |  |
| CCCCC/C=C\C/C=C\C/C=C\C/C=C\CCCC(=O)O[C@H](COC(=O)CCCCCCCCCCCCCCCC)COP(=O)([O-])OCC[N+](C)(C)C [PC 17:0_20:4] (ion (formula + adduct): [C45H82NO8P+H] 1+) |  | 292.9 Å² |  |
| CC/C=C\C/C=C\C/C=C\C/C=C\C/C=C\C/C=C\CCC(=O)OC[C@@H](COC(=O)CCCCCCC/C=C\C/C=C\CCCCC)OC(=O)CCCCC/C=C\C/C=C\C/C=C\C/C=C\CCCCC [TG 18:2_22:4_22:6] (ion (formula + adduct): [C65H102O6+NH4] 1+) |  |  | 335.6 Å² |
| CCCCCCCCCCCCCCCC(=O)OC[C@@H](O)COP(=O)([O-])OCC[N+](C)(C)C [LPC 16:0_0:0] (ion (formula + adduct): [C24H50NO7P+H] 1+) | 230.8 Å² | 229.87 ± 0.98 Å² | 230.6 Å² |
| CCCCCCCCCCCCCCCCCC(=O)OC[C@@H](COC(=O)CCCCCCCCCCCCC)OC(=O)CCCCCCCCCCCCCCC [TG 14:0_16:0_18:0] (ion (formula + adduct): [C51H98O6+NH4] 1+) |  |  | 314.3 Å² |
| CCCCCC/C=C\CCCCCCCC(=O)OC[C@@H](COC(=O)CCCCCCCCCCCCC)OC(=O)CCCCCCCCCCCCC [TG 14:0_14:0_16:1] (ion (formula + adduct): [C47H88O6+NH4] 1+) | 299.3 Å² |  | 299.1 Å² |
| CCCC/C=C\CCCCCCCC(=O)OC[C@H](COC(=O)CCCCCCC/C=C\CCCCCC)OC(=O)CCCCCCC/C=C\CCCCC [TG 14:1_15:1_16:1] (ion (formula + adduct): [C48H86O6+NH4] 1+) | 298.2 Å² |  | 296 Å² |
| CCCCCC/C=C\CCCCCCCC(=O)OC[C@@H](COC(=O)CCCCCCCCCCCCC)OC(=O)CCCCCCCCCCCCCCC [TG 14:0_16:0_16:1] (ion (formula + adduct): [C49H92O6+NH4] 1+) | 306.03 ± 0.35 Å² | 306 ± 0.3 Å² | 306.1 Å² |
| CCCC/C=C\CCCCCCCC(=O)O[C@@H](COC(=O)CCCCCCC/C=C\CCCCCC)COC(=O)CCCCCCCCCCC [TG 12:0_14:1_16:1] (ion (formula + adduct): [C45H82O6+NH4] 1+) | 290.3 Å² |  |  |
| CC/C=C\C/C=C\C/C=C\C/C=C\C/C=C\C/C=C\CCC(=O)OC[C@@H](O)COP(=O)([O-])OCC[N+](C)(C)C [LPC 22:6_0:0] (ion (formula + adduct): [C30H50NO7P+H] 1+) |  | 233.1 Å² |  |
| CCCCCCCCCCCCC/C=C/[C@@H](O)[C@H](CO[C@@H]1O[C@H](CO)[C@@H](O)C(O)C1O)NC(=O)CCCCCCCCCCCCCCCCCCCCCC (stereo not given in full) [GlcCer d18:1_23:0@] (ion (formula + adduct): [C47H91NO8+H] 1+) | 301.5 Å² |  | 301.2 Å² |
| CC/C=C\C/C=C\C/C=C\C/C=C\C/C=C\CCCC(=O)O[C@H](COC(=O)CCCCCCCCCCCCCCC)COP(=O)([O-])OCC[N+](C)(C)C [PC 16:0_20:5] (ion (formula + adduct): [C44H78NO8P+H] 1+) |  |  | 285.7 Å² |
| CC/C=C\C/C=C\C/C=C\C/C=C\C/C=C\C/C=C\CCC(=O)OC[C@@H](COC(=O)CCC/C=C\C/C=C\C/C=C\C/C=C\CCCCC)OC(=O)CCC/C=C\C/C=C\C/C=C\C/C=C\CCCCC [TG 20:4_20:4_22:6] (ion (formula + adduct): [C65H98O6+NH4] 1+) | 333.7 Å² |  |  |
| CCCCCC/C=C\CCCCCCCC(=O)OC[C@H](COP(=O)(O)OCCN)OC(=O)CCCCCCC/C=C\CCCCCCC [PE 16:1_17:1@] (ion (formula + adduct): [C38H72NO8P+H] 1+) | 268.3 Å² |  |  |
| CCCCC/C=C/C/C=C/C/C=C/C/C=C/CCCC(=O)OC[C@H](COP(=O)([O-])OCC[N+](C)(C)C)OC(=O)CCC/C=C/C/C=C/C/C=C/C/C=C/CCCCC [PC 20:4_20:4] (ion (formula + adduct): [C48H80NO8P+H] 1+) | 292.7 Å² |  |  |
| CCCCC/C=C\C/C=C\CCCCCCCC(=O)OC[C@@H](COC(=O)CCCCCCCCCCCCCC)OC(=O)CCCCCCC/C=C\CCCCCCCC [TG 15:0_18:1_18:2] (ion (formula + adduct): [C54H98O6+NH4] 1+) |  | 316.6 Å² |  |

Now from value to compound:

| TIMS collisional cross section (sample type: HeLa) | TIMS collisional cross section (sample type: plasma) | TIMS collisional cross section (sample type: Liver) | Structure (SMILES) |
| --- | --- | --- | --- |
| 332.8 Å² |  |  | CC/C=C\C/C=C\C/C=C\C/C=C\C/C=C\C/C=C\CCC(=O)OC[C@@H](COC(=O)CCCCCCCCCCCCCCC)OC(=O)CCCCC/C=C\C/C=C\C/C=C\C/C=C\C/C=C\CC [TG 16:0_22:5_22:6] (ion (formula + adduct): [C63H100O6+NH4] 1+) |
|  | 322.17 ± 0.57 Å² | 322.5 ± 0.14 Å² | CCCCC/C=C\C/C=C\CCCCCCCC(=O)OC[C@@H](COC(=O)CCCCCCC/C=C\CCCCCCCC)OC(=O)CCCCCCC/C=C\C/C=C\CCCCC [TG 18:1_18:2_18:2] (ion (formula + adduct): [C57H100O6+NH4] 1+) |
|  |  | 254.2 Å² | CC/C=C\C/C=C\C/C=C\CCCCCCCC(=O)O[C@@H](CO)COC(=O)CCCCCCC/C=C\C/C=C\CCCCC [DG 18:2_18:3_0:0] (ion (formula + adduct): [C39H66O5+NH4] 1+) |
| 237.1 Å² | 238.4 Å² |  | CCCCCCCCCCCCCCCCCC(=O)O[C@H](CO)COP(=O)([O-])OCC[N+](C)(C)C [LPC 18:0] (ion (formula + adduct): [C26H54NO7P+H] 1+) |
|  |  | 322.3 Å² | CCCCC/C=C\C/C=C\C/C=C\CCCCCCC(=O)OC[C@@H](COC(=O)CCCCCCCCCCCCCCC)OC(=O)CCCCCCC/C=C\C/C=C\CCCCC [TG 16:0_18:2_20:3] (ion (formula + adduct): [C57H100O6+NH4] 1+) |
| 285.8 Å² |  |  | CCCCCCC/C=C\CCCCCCCC(=O)O[C@H](COC(=O)CCCCCCCCCCCCCCC)COP(=O)([O-])OCC[N+](C)(C)C [PC 16:0_17:1] (ion (formula + adduct): [C41H80NO8P+H] 1+) |
| 277.5 Å² |  |  | CCCCCCCCC/C=C\CCCCCCCC(=O)O[C@H](CO/C=C\CCCCCCCCCCCCCC)COP(=O)(O)OCCN [PE P- 16:0@_19:1] (ion (formula + adduct): [C40H78NO7P+H] 1+) |
|  |  | 305.2 Å² | CC/C=C\C/C=C\C/C=C\C/C=C\C/C=C\C/C=C\CCC(=O)OC[C@@H](COC(=O)CCCCCCCCCCCC)OC(=O)CCCCCCCCCCCCC [TG 13:0_14:0_22:6] (ion (formula + adduct): [C52H88O6+NH4] 1+) |
| 287.3 Å² |  |  | CCCCC/C=C\C/C=C\C/C=C\C/C=C\CCCC(=O)O[C@H](COC(=O)CCCCCCCCCCCCCCCCCC)COP(=O)(O)OCCN [PE 19:0_20:4@] (ion (formula + adduct): [C44H80NO8P+H] 1+) |
